Data: patent publication US8134015B2, “Compound inhibiting in vivo phosphorous transport and medicine containing the same” (Kyowa Hakko Kirin Co., Ltd., priority 2003, dated 2012)

These compounds were tested against T1, rat NaPi-2b (Rattus norvegicus, UniProt Q9JJ09) (assay: Sodium-dependent phosphate uptake of Xenopus oocytes which expressed NaPi-2b (32P)). Conditions: Xenopus oocytes expressing rat NaPi-2b, 32P radioactive phosphorus; read-out: IC50 (phosphate uptake inhibitory activity).
T1 construct: expressed in transfected cells; host or cells: Xenopus oocytes injected with cRNA
T1 sequence (Q9JJ09 1-695): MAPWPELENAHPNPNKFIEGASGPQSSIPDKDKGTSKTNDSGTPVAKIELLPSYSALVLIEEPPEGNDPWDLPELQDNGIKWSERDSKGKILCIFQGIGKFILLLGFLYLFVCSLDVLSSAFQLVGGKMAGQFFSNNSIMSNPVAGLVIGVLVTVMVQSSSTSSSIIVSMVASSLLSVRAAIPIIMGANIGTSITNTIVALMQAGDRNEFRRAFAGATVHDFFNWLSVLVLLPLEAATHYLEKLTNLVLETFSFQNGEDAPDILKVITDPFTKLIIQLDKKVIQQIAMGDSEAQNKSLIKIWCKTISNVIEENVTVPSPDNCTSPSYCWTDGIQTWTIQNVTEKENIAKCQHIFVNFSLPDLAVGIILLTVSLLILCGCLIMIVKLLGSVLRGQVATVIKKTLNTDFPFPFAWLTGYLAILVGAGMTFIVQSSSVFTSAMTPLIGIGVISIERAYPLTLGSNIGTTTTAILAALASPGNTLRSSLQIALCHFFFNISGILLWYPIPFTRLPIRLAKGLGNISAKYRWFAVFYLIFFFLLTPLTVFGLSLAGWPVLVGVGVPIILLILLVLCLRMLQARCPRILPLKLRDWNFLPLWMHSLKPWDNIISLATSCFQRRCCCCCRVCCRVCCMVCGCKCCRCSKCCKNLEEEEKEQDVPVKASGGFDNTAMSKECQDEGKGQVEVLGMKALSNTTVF
Format: cell-based
In short: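 Steps: rat NaPi-2b cDNA cloned from small intestine; cRNA made and injected into oocytes; 2-day expression; 32P phosphate uptake with compound; % inhibition at 300/100 μM taken from one curve.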

Compound | IC50
Cc1ccc(/C=N/n2c(-c3cccc(CSc4nc[nH]n4)c3)nc3sc4c(c3c2=O)CCCC4)cc1C [Compound 646, 3-[(3,4-Dimethyl-benzylidene-)-amino]-2-[3-(1H-[1,2,4]triazol-3-ylsulfanylmethyl)-phenyl]-5,6,7,8-tetrahydro-3H-benzo[4,5]thieno[2,3-d]pyrimidin-4-one] | 1.77 µM
Cc1ccc(/C=N/n2c(-c3cccc(CSc4nc[nH]n4)c3)nc3sc4c(c3c2=O)CCCC4)cc1 [Compound 647, 3-[(4-Methyl-benzylidene-)-amino]-2-[3-(1H-[1,2,4]triazol-3-ylsulfanylmethyl)-phenyl]-5,6,7,8-tetrahydro-3H-benzo[4,5]thieno[2,3-d]pyrimidin-4-one] | 5.62 µM
O=c1c2c3c(sc2nc(-c2cccc(CSc4nc[nH]n4)c2)n1/N=C/c1ccc(F)cc1)CCCC3 [Compound 648, 3-[(4-Fluoro-benzylidene-)-amino]-2-[3-(1H-[1,2,4]triazol-3-ylsulfanylmethyl)-phenyl]-5,6,7,8-tetrahydro-3H-benzo[4,5]thieno[2,3-d]pyrimidin-4-one] | 2.04 µM
O=c1c2c3c(sc2nc(-c2cccc(CSc4nc[nH]n4)c2)n1/N=C/c1cccc(F)c1)CCCC3 [Compound 649, 3-[(3-Fluoro-benzylidene)-amino]-2-[3-(1H-[1,2,4]triazol-3-ylsulfanylmethyl)-phenyl]-5,6,7,8-tetrahydro-3H-benzo[4,5]thieno[2,3-d]pyrimidin-4-one] | 2.69 µM
O=c1c2c3c(sc2nc(-c2cccc(CSc4nc[nH]n4)c2)n1/N=C/c1ccc(Cl)c(C(F)(F)F)c1)CCCC3 [Compound 650, 3-[(4-Chloro-3-trifluoromethyl-benzylidene)-amino]-2-[3-(1H-[1,2,4]triazol-3-ylsulfanylmethyl)-phenyl]-5,6,7,8-tetrahydro-3H-benzo[4,5]thieno[2,3-d]pyrimidin-4-one] | 0.95 µM
COc1ccc(/C=N/n2c(-c3cccc(CSc4nc[nH]n4)c3)nc3sc4c(c3c2=O)CCCC4)cc1 [Compound 651, 3-[(4-Methoxy-benzylidene)-amino]-2-[3-(1H-[1,2,4]triazol-3-ylsulfanylmethyl)-phenyl]-5,6,7,8-tetrahydro-3H-benzo[4,5]thieno[2,3-d]pyrimidin-4-one] | 263 µM
CCN(CC)CCN(Cc1cccc(C(=O)Nc2sc3c(c2C(=O)N/N=C/c2ccc(C)c(C)c2)CCCC3)c1)C(C)=O [Compound 652, 3-{[Acetyl-(2-diethylamino-ethyl)-amino]-methyl}-N-[3-(3,4-dimethyl-benzylidene-hydrazinocarbonyl)-4,5,6,7-tetrahydro-benzo[b]thiophen-2-yl]-benzamide] | 0.72 µM
CCN(CC)CCN(Cc1cccc(C(=O)Nc2sc3c(c2C(=O)N/N=C/c2ccc(C)cc2)CCCC3)c1)C(C)=O [Compound 653, 3-{[Acetyl-(2-diethylamino-ethyl)-amino]-methyl}-N-[3-(4-methyl-benzylidene-hydrazinocarbonyl)-4,5,6,7-tetrahydro-benzo[b]-thiophen-2-yl]-benzamide] | 1.1 µM
CCN(CC)CCN(Cc1cccc(C(=O)Nc2sc3c(c2C(=O)N/N=C/c2ccc(F)cc2)CCCC3)c1)C(C)=O [Compound 654, 3-{[Acetyl-(2-diethylamino-ethyl)-amino]-methyl}-N-[3-(4-fluoro-benzylidene-hydrazinocarbonyl)-4,5,6,7-tetrahydro-benzo[b]-thiophen-2-yl]-benzamide] | 2.03 µM
CCN(CC)CCN(Cc1cccc(C(=O)Nc2sc3c(c2C(=O)N/N=C/c2cccc(F)c2)CCCC3)c1)C(C)=O [Compound 655, 3-{[Acetyl-(2-diethylamino-ethyl)-amino]-methyl}-N-[3-(3-fluoro-benzylidene-hydrazinocarbonyl)-4,5,6,7-tetrahydro-benzo[b]-thiophen-2-yl]-benzamide] | 1.58 µM
CCN(CC)CCN(Cc1cccc(C(=O)Nc2sc3c(c2C(=O)N/N=C/c2ccc(Cl)c(C(F)(F)F)c2)CCCC3)c1)C(C)=O [Compound 656, 3-{[Acetyl-(2-diethylamino-ethyl)-amino]-methyl}-N-[3-(4-chloro-3-trifluoromethyl-benzylidene-hydrazinocarbonyl)-4,5,6,7-tetrahydro-benzo[b]thiophen-2-yl]-benzamide] | 2.98 µM
CCN(CC)CCN(Cc1cccc(C(=O)Nc2sc3c(c2C(=O)N/N=C/c2ccc(OC)cc2)CCCC3)c1)C(C)=O [Compound 657, 3-{[Acetyl-(2-diethylamino-ethyl)-amino]-methyl}-N-[3-(4-methoxy-benzylidene-hydrazinocarbonyl)-4,5,6,7-tetrahydro-benzo[b]thiophen-2-yl]-benzamide] | 2.63 µM
Cc1ccc(/C=N/NC(=O)c2ccsc2NC(=O)c2cccc(CSCCCO)c2)cc1C [Compound 658, N-[3-(3,4-Dimethyl-benzylidene-hydrazinocarbonyl)-thiophen-2-yl]-3-(3-hydroxy-propylsulfanylmethyl)-benzamide] | < 3 µM
Cc1ccc(/C=N/NC(=O)c2ccsc2NC(=O)c2cccc(CSCCCO)c2)cc1 [Compound 659, 3-(3-Hydroxy-propylsulfanylmethyl)-N-[3-(4-methyl-benzylidene-hydrazinocarbonyl)-thiophen-2-yl]-benzamide] | 12.4 µM
O=C(Nc1sccc1C(=O)N/N=C/c1ccc(F)cc1)c1cccc(CSCCCO)c1 [Compound 660, N-[3-(4-Fluoro-benzylidene-hydrazinocarbonyl)-thiophen-2-yl]-3-(3-hydroxy-propylsulfanylmethyl)-benzamide] | 18.7 µM
O=C(Nc1sccc1C(=O)N/N=C/c1cccc(F)c1)c1cccc(CSCCCO)c1 [Compound 661, N-[3-(3-Fluoro-benzylidene-hydrazinocarbonyl)-thiophen-2-yl]-3-(3-hydroxy-propylsulfanylmethyl)-benzamide] | < 10 µM
O=C(Nc1sccc1C(=O)N/N=C/c1ccc(Cl)c(C(F)(F)F)c1)c1cccc(CSCCCO)c1 [Compound 662, N-[3-(4-Chloro-3-trifluoromethyl-benzylidene-hydrazinocarbonyl)-thiophen-2-yl]-3-(3-hydroxy-propylsulfanylmethyl)-benzamide] | 3.2 µM
COc1ccc(/C=N/NC(=O)c2ccsc2NC(=O)c2cccc(CSCCCO)c2)cc1 [Compound 663, 3-(3-Hydroxy-propylsulfanylmethyl)-N-[3-(4-methoxy-benzylidene-hydrazinocarbonyl)-thiophen-2-yl]-benzamide] | 137 µM
CCN(CC)CCN(C)Cc1cccc(C(=O)Nc2sccc2C(=O)N/N=C/c2ccc(C)c(C)c2)c1 [Compound 664, 3-{[(2-Diethylamino-ethyl)-methyl-amino]-methyl}-N-[3-(3,4-dimethyl-benzylidene-hydrazinocarbonyl)-thiophen-2-yl]-benzamide] | 15.1 µM
CCN(CC)CCN(C)Cc1cccc(C(=O)Nc2sccc2C(=O)N/N=C/c2ccc(F)cc2)c1 [Compound 666, 3-{[(2-Diethylamino-ethyl)-methyl-amino]-methyl}-N-[3-(4-fluoro-benzylidene-hydrazinocarbonyl)-thiophen-2-yl]-benzamide] | 31.2 µM
CCN(CC)CCN(C)Cc1cccc(C(=O)Nc2sccc2C(=O)N/N=C/c2cccc(F)c2)c1 [Compound 667, 3-{[(2-Diethylamino-ethyl)-methyl-amino]-methyl}-N-[3-(3-fluoro-benzylidene-hydrazinocarbonyl)-thiophen-2-yl]-benzamide] | 30.5 µM
CCN(CC)CCN(C)Cc1cccc(C(=O)Nc2sccc2C(=O)N/N=C/c2ccc(Cl)c(C(F)(F)F)c2)c1 [Compound 668, N-[3-(4-Chloro-3-trifluoromethyl-benzylidene-hydrazinocarbonyl)-thiophen-2-yl]-3-{[(2-diethylamino-ethyl)-methyl-amino]-methyl}-benzamide] | 9.13 µM
CCN(CC)CCN(C)Cc1cccc(C(=O)Nc2sccc2C(=O)N/N=C/c2ccc(OC)cc2)c1 [Compound 669, 3-{[(2-Diethylamino-ethyl)-methyl-amino]-methyl}-N-[3-(4-methoxy-benzylidene-hydrazinocarbonyl)-thiophen-2-yl]-benzamide] | 15.3 µM
Cc1ccc(/C=N/NC(=O)c2ccsc2NC(=O)c2cccc(CN(CC(C)O)CC(C)O)c2)cc1 (centres unmarked) [Compound 671, 3-{[Bis-(2-hydroxy-propyl)-amino]-methyl}-N-[3-(4-methyl-benzylidene-hydrazinocarbonyl)-thiophen-2-yl]-benzamide] | < 3 µM

Same assay, conditions: phosphate uptake, oocytes expressing rat NaPi-2b; 300 μM, determined from inhibition curve

Compound | inhibition at 300 µM
CCN(CC)CCN(C)Cc1cccc(C(=O)Nc2sccc2C(=O)N/N=C/c2ccc(C)cc2)c1 [Compound 665, 3-{[(2-Diethylamino-ethyl)-methyl-amino]-methyl}-N-[3-(4-methyl-benzylidene-hydrazinocarbonyl)-thiophen-2-yl]-benzamide] | 82.3%
Cc1ccc(/C=N/NC(=O)c2ccsc2NC(=O)c2cccc(CN(CC(C)O)CC(C)O)c2)cc1C (centres unmarked) [Compound 670, 3-{[Bis-(2-hydroxy-propyl)-amino]-methyl}-N-[3-(3,4-dimethyl-benzylidene-hydrazinocarbonyl)-thiophen-2-yl]-benzamide] | 70.2%
